Experimental findings from US6432934B1, “Methods and compositions for topical treatment of eye surface inflammation and related dry eye disease” (Advanced Vision Research, priority 1998, dated 2002) are described below.

Experiment [1] relates to rabbit model for meibomianitis/meibomian gland dysfunction. Put plainly: Corneal epithelial glycogen level, rabbit model for meibomianitis/meibomian gland dysfunction. Type of experiment: in vivo, New Zealand white rabbits. The settings on record: intramuscular 50 mg/kg/d, five days each week, weeks 8-20 post-op.
For experiment [2] the test system is unchanged. Kind of experiment: Conjunctival goblet-cell density, rabbit model for meibomianitis/meibomian gland dysfunction. The class given is in vivo, New Zealand white rabbits. The settings on record: intramuscular 50 mg/kg/d, five days each week, weeks 8-20 post-op.

Regarding `CN(C)[C@@H]1C(O)=C(C(N)=O)C(=O)[C@@]2(O)C(O)=C3C(=O)c4c(O)cccc4[C@@](C)(O)[C@H]3C[C@@H]12.Cl` [systemic tetracycline, tetracycline hydrochloride], the “effect on corneal glycogen” value in experiment [1] is given as “no effect”. In addition, the “effect on conjunctival goblet-cell density” value in experiment [2] is “no effect”.
